Laboratory results published in ChEMBL document CHEMBL1131690, “Synthesis and evaluation of anthranilic acid-based transthyretin amyloid fibril inhibitors” (Bioorg Med Chem Lett, 1999).

What was measured:
[1] = Binding parameter for complete inhibition of Wild type Transthyretin amyloid fibril formation at pH 4.4 with negative cooperativity by the compound at a concentration of (10.8)
[2] = Concentration completly inhibiting Wild type TTR amyloid fibril formation at pH 4.4; format: functional

Structure (SMILES): O=C(O)c1ccccc1Nc1cccc(C(F)(F)F)c1
- KD1 [1]: 30.1 nM
- KD2 [1]: 255 nM

Structure (SMILES): O=C(O)c1cccc(Nc2ccccc2C(=O)O)c1
- Concentration [2]: 7.6 µM
